Assay results taken from ChEMBL document CHEMBL3886281, “Furo[3,4-c]quinoline derivatives, medicaments containing such compounds, their use and process for their preparation” (2015).

Biological target: T1, Cholesteryl ester transfer protein (Homo sapiens, UniProt P11597)
T1 sequence (P11597 whole entry): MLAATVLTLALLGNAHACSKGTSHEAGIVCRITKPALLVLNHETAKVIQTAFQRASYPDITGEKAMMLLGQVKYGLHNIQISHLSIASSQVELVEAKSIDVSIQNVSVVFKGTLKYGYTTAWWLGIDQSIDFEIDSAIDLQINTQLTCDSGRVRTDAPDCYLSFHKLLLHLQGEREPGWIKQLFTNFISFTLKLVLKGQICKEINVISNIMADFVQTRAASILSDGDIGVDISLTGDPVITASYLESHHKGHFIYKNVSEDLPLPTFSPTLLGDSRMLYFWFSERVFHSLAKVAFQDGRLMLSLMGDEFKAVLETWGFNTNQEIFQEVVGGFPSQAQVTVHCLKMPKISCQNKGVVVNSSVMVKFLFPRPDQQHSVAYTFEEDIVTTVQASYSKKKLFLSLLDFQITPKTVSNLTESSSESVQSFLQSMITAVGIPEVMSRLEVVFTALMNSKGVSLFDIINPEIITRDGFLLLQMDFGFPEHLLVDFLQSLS
Assay: CETP In Vitro Assay: CETP inhibitory activity of compounds of the present invention can be determined in a fluorometric assay purchased from Roar Biomedical, Inc. (New York, N.Y., USA). […] Recombinant human CETP was partially purified from medium conditioned by CETP expressing CHO cells. In a 384 well format 2.5 ul of compound solution in DMSO was combined with 2 ul of donor solution, 2 ul of acceptor solution and 0.8 ul of recombinant human CETP solution in a total volume of 100 ul with assay buffer and incubated for 3 hours at 37° C. The fluorescence intensity was measured at excitation wavelength of 485 nm and emission wavelength of 535 nm.

IC50: 210 nM
SMILES: CC(C)c1nc2c(c3c1[C@@H](c1ccc(C(F)(F)F)nc1)OC31CCOCC1)[C@@H](O)CC1(CC1)[C@H]2O
